As usually defined, the IC50 is the concentration that inhibits the measured activity by half. A high value points to lower potency.

Some results are limits rather than exact numbers.

The test system of the assay is MIA PaCa-2 cells. Description: MIA PaCa2 cell-based assay (1,536-well high-content imaging ALDEFLUOR assay). Further details: species or system human. To be noted: Homo sapiens, 0.5 h, ALDEFLUOR BAAA substrate 500 nM, 30 minutes. On the procedure:
Example 359. MIA PaCa2 Cell-Based Assay (In Vitro Assay)
1,536-Well High-Content Imaging ALDEFLUOR Assay
The ALDEFLUOR™ kit was purchased from […] Technologies (Vancouver, Canada; #01700). MIA PaCa-2 cells (5 μL; 1,000 cells/well) were dispensed into black, optical quality (cyclic olefin copolymer) clear bottom, medium binding TC treated 1,536-well plates (Aurora Microplates, Whitefish Mont.) using a Multidrop Combi dispenser (ThermoFisher) and incubated overnight (37° C., 5% CO2, 85% RH). Media (RPMI 1640 (Life Technologies, Carlsbad, Calif.), supplemented with 2 mM L-Glutamine (Life Technologies), 10% HyClone™ fetal bovine serum (FBS, GE Healthcare, Piscataway, N.J.) and 100 U/mL penicillin and 100 μg/mL streptomycin (Life Technologies)) was subsequently removed by centrifuging plates upside down using a plate adaptor to collect media. A solution of BAAA substrate ([…] Technologies) and Hoechst 33342 (ThermoFisher, final concentrations of 500 nM and 0.5 nM, respectively) in ALDEFLUOR™ buffer ([…] Technologies #01700) was dispensed onto cells using a Multidrop Combi followed by immediate transfer (23 nL) of compound or control solutions using a Wako Pin-tool (final percentage of DMSO in the cell plates was 0.5%). Unless otherwise noted, all compounds were assayed as 16-point dilutions spanning a final concentration range of 1.4 nM to 47.8 μM. The neutral and positive assay controls were DMSO and DEAB (4.6 μM), respectively. Cells were incubated for 30 minutes or the indicated amount of time at 37° C., 5% CO2, 85% RH to allow the conversion of BAAA into BAA. Supernatant was subsequently removed by centrifugation as described above, then ALDEFLUOR™ buffer (3 μl) was dispensed by Multidrop Combi before imaging on an IN Cell 2200 (GE Healthcare).
The above assay was modified for an online robotic screening system. After cell plating and overnight incubation, 4 μL of media were removed using a 64-tip metal aspirator head on a Wako aspirator station, leaving 1 μL remaining in the well, followed by a 4 μL dispense of BAAA and Hoechst 33342 in ALDEFLUOR™ buffer, for a final concentration of 500 nM and 0.5 nM, respectively Immediately following the dispense, 23 nL of compound or control solutions were transferred using a Wako Pin-tool. Cells were incubated for 30 minutes at 37° C., 5% CO2, 85% RH, followed by a 4 μL media removal using the Wako aspirator, and a subsequent 3 μL addition of ALDEFLUOR™ buffer. Plates were then immediately read on the IN Cell 2200 as described below.
Image Acquisition and Analysis
For images captured on the IN Cell 2200 widefield automated microscope, a 10×0.45 NA Plan Apo objective lens was used to capture the entire well of the 1,536-well plate using standard DAPI (390/18×, 432/48 m) and FITC (475/28×, 525/48 m) filter sets at 50 msec and 100 msec exposures, respectively. Images were subsequently analyzed using IN Cell Investigator v1.6.2 analysis software's canned Multi-Target Analysis algorithm (GE Healthcare). Hoechst stained nuclei were identified using top hat segmentation with a minimum area of 75 μm^2 and sensitivity of 93. BAA-retaining cells captured via FITC channel, were identified using multiscale top hat segmentation with a minimum area of 100 μm^2 and a sensitivity setting of 16. […] Data were plotted using GraphPad Prism software (GraphPad, San Diego, Calif.).
In turn, `CC1(C#N)CCN(c2c(C(=O)N3CCN(S(=O)(=O)C4CC4)CC3)cnc3ccc(F)cc23)CC1` [Example 85, 1-(3-(4-(cyclopropylsulfonyl)piperazine-1-carbonyl)-6-fluoroquinolin-4-yl)-4-methylpiperidine-4-carbonitrile] returned an IC50 greater than 10000 nM.

`CC1(C#N)CCN(c2c(C(=O)N3CCN(S(C)(=O)=O)CC3)cnc3ccc(F)cc23)CC1` [Example 86, 1-(6-fluoro-3-(4-(methylsulfonyl)piperazine-1-carbonyl)quinolin-4-yl)-4-methylpiperidine-4-carbonitrile] yielded an IC50 of 1000 to 10000 nM.

Compound `CCC(=O)N1CCN(C(=O)c2cnc3ccc(F)cc3c2N2CCC(C)(C#N)CC2)CC1` [Example 91, 1-(6-fluoro-3-(4-propionylpiperazine-1-carbonyl)quinolin-4-yl)-4-methylpiperidine-4-carbonitrile] displayed a half-inhibitory concentration (IC50) of 1000 to 10000 nM.

For the compound `CC(C)C(=O)N1CCN(C(=O)c2cnc3ccc(F)cc3c2N2CCC(C)(C#N)CC2)CC1` [Example 92, 1-(6-fluoro-3-(4-isobutyrylpiperazine-1-carbonyl)quinolin-4-yl)-4-methylpiperidine-4-carbonitrile], the IC50 lay in the range of 1000 to 10000 nM.

As for `O=C(c1cnc2cc(F)c(F)cc2c1N1CCC2(CC1)OCCO2)N1CCN(C(=O)C2CC2)CC1` [Example 122, (4-(cyclopropanecarbonyl)piperazin-1-yl)(6,7-difluoro-4-(1,4-dioxa-8-azaspiro[4.5]decan-8-yl)quinolin-3-yl)methanone], the IC50 was 1000 to 10000 nM.

Compound `CCS(=O)(=O)N1CCN(C(=O)c2cnc3ccc(F)cc3c2N2CCC(C)(C#N)CC2)CC1` [Example 156, 1-(3-(4-(ethylsulfonyl)piperazine-1-carbonyl)-6-fluoroquinolin-4-yl)-4-methylpiperidine-4-carbonitrile] yielded a concentration for half-maximal inhibition (IC50) of 1000 to 10000 nM.

`CN(C)S(=O)(=O)N1CCN(C(=O)c2cnc3ccc(F)cc3c2N2CCC(C)(C#N)CC2)CC1` [Example 157, 4-(4-(4-cyano-4-methylpiperidin-1-yl)-6-fluoroquinoline-3-carbonyl)-N,N-dimethylpiperazine-1-sulfonamide] returned a concentration for half-maximal inhibition (IC50) of less than 500 nM.

Consider `CN(C)C(=O)N1CCN(C(=O)c2cnc3ccc(F)cc3c2N2CCC(C)(C#N)CC2)CC1` [Example 182, 4-(4-(4-cyano-4-methylpiperidin-1-yl)-6-fluoroquinoline-3-carbonyl)-N,N-dimethylpiperazine-1-carboxamide], for which the 50% inhibitory concentration (IC50) is 1000 to 10000 nM.

`CC1(C#N)CCN(c2c(C(=O)N3CCC(S(C)(=O)=O)CC3)cnc3ccc(F)cc23)CC1` [Example 188, 1-(6-fluoro-3-(4-(methylsulfonyl)piperidine-1-carbonyl)quinolin-4-yl)-4-methylpiperidine-4-carbonitrile] registered an IC50 of 1000 to 10000 nM.

`CC1(C#N)CCN(c2c(C(=O)N3CCC(C(=O)C4CC4)CC3)cnc3ccc(F)cc23)CC1` [Example 194, 1-(3-(4-(cyclopropanecarbonyl)piperidine-1-carbonyl)-6-fluoroquinolin-4-yl)-4-methylpiperidine-4-carbonitrile] showed an IC50 of 1000 to 10000 nM.

`CCC1(C#N)CCN(c2c(C(=O)N3CCN(S(C)(=O)=O)CC3)cnc3ccc(F)cc23)CC1` [Example 197, 4-ethyl-1-(6-fluoro-3-(4-(methylsulfonyl)piperazine-1-carbonyl)quinolin-4-yl)piperidine-4-carbonitrile]: the IC50 was less than 500 nM.

In turn, `CS(=O)(=O)N1CCN(C(=O)c2cnc3ccc(F)cc3c2N2CCC3(CC2)CC(=O)c2ccccc23)CC1` [Example 199, 1′-(6-fluoro-3-(4-(methylsulfonyl)piperazine-1-carbonyl)quinolin-4-yl)spiro[indene-1,4′-piperidin]-3(2H)-one] registered a 50% inhibitory concentration (IC50) of 1000 to 10000 nM.

Consider `O=C(c1cnc2ccc(F)cc2c1N1CCC(Cc2ccccc2)CC1)N1CCN(C(=O)C2CC2)CC1` [Example 200, (4-(4-benzylpiperidin-1-yl)-6-fluoroquinolin-3-yl)(4-(cyclopropanecarbonyl)piperazin-1-yl)methanone], for which the IC50 is greater than 10000 nM.

In the case of `CS(=O)(=O)N1CCN(C(=O)c2cnc3ccc(F)cc3c2N2CCC3(CC2)Cc2ccccc2C3=O)CC1` [Example 201, 1′-(6-fluoro-3-(4-(methylsulfonyl)piperazine-1-carbonyl)quinolin-4-yl)spiro[indene-2,4′-piperidin]-1(3H)-one], the 50% inhibitory concentration (IC50) fell in the range of 1000 to 10000 nM.

In turn, `CCC1(C#N)CCN(c2c(C(=O)N3CCN(C(=O)C4CC4)CC3)cnc3ccc(F)cc23)CC1` [Example 202, 1-(3-(4-(cyclopropanecarbonyl)piperazine-1-carbonyl)-6-fluoroquinolin-4-yl)-4-ethylpiperidine-4-carbonitrile] showed a 50% inhibitory concentration (IC50) of less than 500 nM.

`Cn1ncc2c(N3CCC(C)(C#N)CC3)c(C(=O)N3CCN(S(C)(=O)=O)CC3)cnc21` [Example 206, 4-methyl-1-(1-methyl-5-(4-(methylsulfonyl)piperazine-1-carbonyl)-1H-pyrazolo[3,4-b]pyridin-4-yl)piperidine-4-carbonitrile] gave a half-inhibitory concentration (IC50) of 1000 to 10000 nM.

In turn, `N#CC1(c2ccccc2)CCN(c2c(C(=O)N3CCN(C(=O)C4CC4)CC3)cnc3ccc(F)cc23)CC1` [Example 208, 1-(3-(4-(cyclopropanecarbonyl)piperazine-1-carbonyl)-6-fluoroquinolin-4-yl)-4-phenylpiperidine-4-carbonitrile] yielded a half-inhibitory concentration (IC50) of less than 500 nM.

Take `CS(=O)(=O)N1CCN(C(=O)c2cnc3ccc(F)cc3c2N2CCC(C#N)(c3ccccc3)CC2)CC1` [Example 209, 1-(6-fluoro-3-(4-(methylsulfonyl)piperazine-1-carbonyl)quinolin-4-yl)-4-phenylpiperidine-4-carbonitrile]: the IC50 is less than 500 nM.

As to `CS(=O)(=O)N1CCN(C(=O)c2cnc3ccc(F)cc3c2-c2ccc(C3(C#N)CC3)cc2)CC1` [Example 210, 1-(4-(6-fluoro-3-(4-(methylsulfonyl)piperazine-1-carbonyl)quinolin-4-yl)phenyl)cyclopropanecarbonitrile], the IC50 was less than 500 nM.

In turn, `CC(C)(C#N)c1ccc(-c2c(C(=O)N3CCN(S(C)(=O)=O)CC3)cnc3ccc(F)cc23)cc1` [Example 211, 2-(4-(6-fluoro-3-(4-(methylsulfonyl)piperazine-1-carbonyl)quinolin-4-yl)phenyl)-2-methylpropanenitrile] came in with an IC50 of less than 500 nM.

With `CC(=O)C1(c2ccccc2)CCN(c2c(C(=O)N3CCN(S(C)(=O)=O)CC3)cnc3ccc(F)cc23)CC1` [Example 216, 1-(1-(6-fluoro-3-(4-(methylsulfonyl)piperazine-1-carbonyl)quinolin-4-yl)-4-phenylpiperidin-4-yl)ethanone], the half-maximal inhibitory concentration (IC50) was less than 500 nM.

On to `CC1(C#N)CCN(c2c(C(=O)N3CCN(S(C)(=O)=O)CC3)cnc3sccc23)CC1` [Example 217, 4-methyl-1-(5-(4-(methylsulfonyl)piperazine-1-carbonyl)thieno[2,3-b]pyridin-4-yl)piperidine-4-carbonitrile], for which the half-maximal inhibitory concentration (IC50) lay in the range of 1000 to 10000 nM.

For `CC1(C#N)CCN(c2c(C(=O)N3CCN(C(=O)C4CC4)CC3)cnc3sccc23)CC1` [Example 219, 1-(5-(4-(cyclopropanecarbonyl)piperazine-1-carbonyl)thieno[2,3-b]pyridin-4-yl)-4-methylpiperidine-4-carbonitrile], the half-maximal inhibitory concentration (IC50) fell in the range of 1000 to 10000 nM.
